# Assay results from PubChem BioAssay AID2060883 (Molecular Pharmacology Branch, DTP, NCI, 2025).
# System: 843782-103-R-J1-PDC complex spheroid viability
# Test: Anticancer human tumor 843782-103-R-J1-PDC patient-derived lung adenocarcinoma cell line growth inhibition [RAS]
# Conditions: for IC50: curve of first compound; for viability, T/C: stronger effect = lower value
# How it was run: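 Tumour cells grown as complex spheroids with HUVEC endothelial cells and mesenchymal stem cells, treated with RAS pathway inhibitor combinations. Each agent spans half-log steps from near clinical Cmax, or 10 microM where Cmax is unknown.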
# 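Note: viability read after seven days of compound exposure.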
compound,measurement,setting,value
O=C(c1ccc(F)c(F)c1Nc1ccc(I)cc1F)N1CC(O)([C@@H]2CCCCN2)C1 + C=CC(=O)N1CCN(c2nc(OCC3CCCN3C)nc3c(F)c(-c4nc(N)cc(C)c4C(F)(F)F)c(Cl)cc23)C(C)C1,IC50,second compound 0.00316 µM,173 nM
same,IC50,second compound 0.01 µM,162 nM
same,IC50,second compound 0.0316 µM,133 nM
same,IC50,second compound 0.1 µM,121 nM
same,IC50,second compound 0.316 µM,140 nM
same,IC50,second compound 1 µM,138 nM
same,"viability, T/C","second compound 0.00316 µM, first compound 0.00316 µM",85.4%
same,"viability, T/C","second compound 0.00316 µM, first compound 0.01 µM",92%
same,"viability, T/C","second compound 0.00316 µM, first compound 0.0316 µM",77.5%
same,"viability, T/C","second compound 0.00316 µM, first compound 0.1 µM",61%
same,"viability, T/C","second compound 0.00316 µM, first compound 0.316 µM",38.4%
same,"viability, T/C","second compound 0.00316 µM, first compound 1 µM",24.3%
same,"viability, T/C","second compound 0.01 µM, first compound 0.00316 µM",87.5%
same,"viability, T/C","second compound 0.01 µM, first compound 0.01 µM",85.4%
same,"viability, T/C","second compound 0.01 µM, first compound 0.0316 µM",73.2%
same,"viability, T/C","second compound 0.01 µM, first compound 0.1 µM",59.5%
same,"viability, T/C","second compound 0.01 µM, first compound 0.316 µM",37.9%
same,"viability, T/C","second compound 0.01 µM, first compound 1 µM",23.5%
same,"viability, T/C","second compound 0.0316 µM, first compound 0.00316 µM",83.4%
same,"viability, T/C","second compound 0.0316 µM, first compound 0.01 µM",80.2%
same,"viability, T/C","second compound 0.0316 µM, first compound 0.0316 µM",71%
same,"viability, T/C","second compound 0.0316 µM, first compound 0.1 µM",53.6%
same,"viability, T/C","second compound 0.0316 µM, first compound 0.316 µM",36.8%
same,"viability, T/C","second compound 0.0316 µM, first compound 1 µM",20.9%
same,"viability, T/C","second compound 0.1 µM, first compound 0.00316 µM",89.6%
same,"viability, T/C","second compound 0.1 µM, first compound 0.01 µM",79.6%
same,"viability, T/C","second compound 0.1 µM, first compound 0.0316 µM",68.6%
same,"viability, T/C","second compound 0.1 µM, first compound 0.1 µM",52.7%
same,"viability, T/C","second compound 0.1 µM, first compound 0.316 µM",35.9%
same,"viability, T/C","second compound 0.1 µM, first compound 1 µM",19.7%
same,"viability, T/C","second compound 0.316 µM, first compound 0.00316 µM",84.5%
same,"viability, T/C","second compound 0.316 µM, first compound 0.01 µM",79.9%
same,"viability, T/C","second compound 0.316 µM, first compound 0.0316 µM",68.3%
same,"viability, T/C","second compound 0.316 µM, first compound 0.1 µM",51.6%
same,"viability, T/C","second compound 0.316 µM, first compound 0.316 µM",42%
same,"viability, T/C","second compound 0.316 µM, first compound 1 µM",25.9%
same,"viability, T/C","second compound 1 µM, first compound 0.00316 µM",88.8%
same,"viability, T/C","second compound 1 µM, first compound 0.01 µM",75.5%
same,"viability, T/C","second compound 1 µM, first compound 0.0316 µM",70.8%
same,"viability, T/C","second compound 1 µM, first compound 0.1 µM",53.8%
same,"viability, T/C","second compound 1 µM, first compound 0.316 µM",38.5%
same,"viability, T/C","second compound 1 µM, first compound 1 µM",25.5%
